The record followed here is PubChem BioAssay AID1259411 (Chemical Carcinogenesis Research Information System (CCRIS), 2018).

Activity calls are given as the source filed them. The rule behind the calls is not given here.

This series relates to rodent carcinogenicity bioassays, tumor incidence. As to the kind of experiment: CCRIS carcinogenicity studies. The conditions noted are these: Dose: 0, Dose: 0. In a few lines: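 Archive of carcinogenicity, mutagenicity, tumor promotion and tumor inhibition results drawn from journals, NCI reports and other sources, expert-reviewed; covers 1985-2011 and is no longer updated.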

As to `CC(C)(C)NC(=O)[C@H]1CC[C@H]2[C@@H]3CC[C@H]4NC(=O)C=C[C@]4(C)[C@H]3CC[C@]12C`, the carcinogen call (Species: MOUSE, Strain/Sex: CD-1/MALE, Route: GAVAGE, 2.5, 25, 250 MG/KG/D FOR 83 WK (STUDY DURATION: 83 WK), 2.5, 25, 250 MG/KG/D FOR 83 WK (STUDY DURATION: 83 WK), Tumor Site: Type of Lesion: TESTES: LEYDIG CELL ADENOMA) is “active; positive”.

With `C=CC(=C)C`, the carcinogen call runs as follows: (Species: MOUSE, Strain/Sex: B6C3F1/MALE, Route: INHALATION, 10, 70, 280, 700, 2200 PPM 8 HR/D 5 D/WK FOR 80 WK (STUDY DURATION: 104 WK), 10, 70, 280, 700, 2200 PPM 8 HR/D 5 D/WK FOR 80 WK (STUDY DURATION: 104 WK), Tumor Site: Type of Lesion: LUNG: ALVEOLAR/BRONCHIOLAR ADENOMA OR CARCINOMA, LIVER: HEPATOCELLULAR ADENOMA OR CARCINOMA, HARDERIAN GLAND: ADENOMA, Tumor Site: Type of Lesion: LUNG: ALVEOLAR/BRONCHIOLAR ADENOMA OR CARCINOMA, LIVER: HEPATOCELLULAR ADENOMA OR CARCINOMA, HARDERIAN GLAND: ADENOMA) “active; positive”; (Species: MOUSE, Strain/Sex: B6C3F1/MALE, Route: INHALATION, 70, 140, 2200 PPM 8 HR/D 5 D/WK FOR 40 WK (STUDY DURATION: 104 WK), 70, 140, 2200 PPM 8 HR/D 5 D/WK FOR 40 WK (STUDY DURATION: 104 WK), Tumor Site: Type of Lesion: LUNG: ALVEOLAR/BRONCHIOLAR ADENOMA OR CARCINOMA, LIVER: HEPATOCELLULAR ADENOMA OR CARCINOMA, HARDERIAN GLAND: ADENOMA, Tumor Site: Type of Lesion: LUNG: ALVEOLAR/BRONCHIOLAR ADENOMA OR CARCINOMA, LIVER: HEPATOCELLULAR ADENOMA OR CARCINOMA, HARDERIAN GLAND: ADENOMA) “active; positive”; (Species: MOUSE, Strain/Sex: B6C3F1/MALE, Route: INHALATION, 70, 220, 700, 2200, 7000 PPM 6 HR/D 5 D/WK FOR 26 WK FOLLOWED BY A 26-WK RECOVERY PERIOD (STUDY DURATION: 52 WK), 70, 220, 700, 2200, 7000 PPM 6 HR/D 5 D/WK FOR 26 WK FOLLOWED BY A 26-WK RECOVERY PERIOD (STUDY DURATION: 52 WK), Tumor Site: Type of Lesion: LIVER: ADENOMA OR CARCINOMA, LUNG: ALVEOLAR/BRONCHIOLAR ADENOMA OR CARCINOMA, FORESTOMACH: PAPILLOMA OR CARCINOMA, HARDE, Tumor Site: Type of Lesion: LIVER: ADENOMA OR CARCINOMA, LUNG: ALVEOLAR/BRONCHIOLAR ADENOMA OR CARCINOMA, FORESTOMACH: PAPILLOMA OR CARCINOMA, HARDE) “active; positive”; (Species: MOUSE, Strain/Sex: B6C3F1/MALE, Route: INHALATION, 280 PPM 8 HR/D 5 D/WK FOR 20 WK (STUDY DURATION: 104 WK), Tumor Site: Type of Lesion: HARDERIAN GLAND: ADENOMA, LIVER: ADENOMA) “active; positive”; (Species: MOUSE, Strain/Sex: B6C3F1/MALE, Route: INHALATION, 2200 PPM 4 HR/D 5 D/WK FOR 20 WK (STUDY DURATION: 104 WK), Tumor Site: Type of Lesion: HARDERIAN GLAND: ADENOMA, LIVER: HEPATOCELLULAR ADENOMA OR CARCINOMA) “active; positive”; (Species: MOUSE, Strain/Sex: B6C3F1/MALE, Route: INHALATION, 2200 PPM 4 HR/D 5 D/WK FOR 80 WK (STUDY DURATION: 104 WK), Tumor Site: Type of Lesion: LIVER: HEPATOCELLULAR ADENOMA OR CARCINOMA, HARDERIAN GLAND: ADENOMA) “active; positive”. Besides, the carcinogen call is, setting by setting: (Species: RAT, Strain/Sex: F344/N/FEMALE, Route: INHALATION, 220, 700, 7000 PPM 6 HR/D 5 D/WK FOR 105 WK (STUDY DURATION: 105 WK), 220, 700, 7000 PPM 6 HR/D 5 D/WK FOR 105 WK (STUDY DURATION: 105 WK), Tumor Site: Type of Lesion: MAMMARY GLAND: FIBROADENOMA) “active; positive”; (Species: RAT, Strain/Sex: F344/N/MALE, Route: INHALATION, 220, 700, 7000 PPM 6 HR/D 5 D/WK FOR 105 WK (STUDY DURATION: 105 WK), 220, 700, 7000 PPM 6 HR/D 5 D/WK FOR 105 WK (STUDY DURATION: 105 WK), Tumor Site: Type of Lesion: KIDNEY: ADENOMA OR CARCINOMA, MAMMARY GLAND: FIBROADENOMA OR CARCINOMA, TESTES: ADENOMA, Tumor Site: Type of Lesion: KIDNEY: ADENOMA OR CARCINOMA, MAMMARY GLAND: FIBROADENOMA OR CARCINOMA, TESTES: ADENOMA) “active; positive”.

Regarding `Cc1c(C(=O)O)c(O)cc2c1C(=O)c1c(O)c([C@@H]3O[C@@H](CO)[C@H](O)[C@@H](O)[C@H]3O)c(O)c(O)c1C2=O`, the carcinogen call was “inactive; negative” (Species: RAT, Strain/Sex: WISTAR/FEMALE, Route: ORAL, 50, 150, 500 MG/KG/D IN BASAL DIET TO PUPS OF PARENTS GIVEN THE SAME DIETARY DOSE LEVELS FOR 60 D PRIOR TO MATING AND, 50, 150, 500 MG/KG/D IN BASAL DIET TO PUPS OF PARENTS GIVEN THE SAME DIETARY DOSE LEVELS FOR 60 D PRIOR TO MATING AND) and “inactive; negative” (Species: RAT, Strain/Sex: WISTAR/MALE, Route: ORAL, 50, 150, 500 MG/KG/D IN BASAL DIET TO PUPS OF PARENTS GIVEN THE SAME DIETARY DOSE LEVELS FOR 60 D PRIOR TO MATING AND, 50, 150, 500 MG/KG/D IN BASAL DIET TO PUPS OF PARENTS GIVEN THE SAME DIETARY DOSE LEVELS FOR 60 D PRIOR TO MATING AND).

On to `Cc1cnc(C2=NC(C)(C(C)C)C(=O)N2)c(C(=O)O)c1` (configuration not stated), for which the carcinogen call is “inactive; negative” (Species: Mouse, Strain/Sex: CD-1[Crl(ICR)BR]/Female (55/Group), Route: Oral, 1750, 3500, 7000 ppm of 96.9% imazapic in diet for 18 mo, study duration 18 mo, 1750, 3500, 7000 ppm of 96.9% imazapic in diet for 18 mo, study duration 18 mo); “inactive; negative” (Species: Mouse, Strain/Sex: CD-1[Crl(ICR)BR]/Male (55/Group), Route: Oral, 1750, 3500, 7000 ppm of 96.9% imazapic in diet for 18 mo, study duration 18 mo, 1750, 3500, 7000 ppm of 96.9% imazapic in diet for 18 mo, study duration 18 mo); “inactive; negative” (Species: Rat, Strain/Sex: Crl:CD(SD)BR/Female (55/Group), Route: Oral, 5000, 10,000, 20,000 ppm of 96.4% imazapic in diet for 24 mo, study duration 24 mo, 5000, 10,000, 20,000 ppm of 96.4% imazapic in diet for 24 mo, study duration 24 mo); “inactive; negative” (Species: Rat, Strain/Sex: Crl:CD(SD)BR/Male (55/Group), Route: Oral, 5000, 10,000, 20,000 ppm of 96.4% imazapic in diet for 24 mo, study duration 24 mo, 5000, 10,000, 20,000 ppm of 96.4% imazapic in diet for 24 mo, study duration 24 mo).

With `O=C/C=C/c1ccccc1`, the carcinogen call is “inactive; negative” (Species: MOUSE, Strain/Sex: B6C3F1/MALE, FEMALE (50/GROUP), Route: ORAL, 1000, 2100, 4100 PPM MICROENCAPSULATED IN DIET FOR 2 YR (STUDY DURATION: 2 YR), 1000, 2100, 4100 PPM MICROENCAPSULATED IN DIET FOR 2 YR (STUDY DURATION: 2 YR), Tumor Site: Type of Lesion: NONE) and “inactive; negative” (Species: RAT, Strain/Sex: F344/N/MALE, FEMALE (50/GROUP), Route: ORAL, 1000, 2100, 4100 PPM MICROENCAPSULATED IN DIET FOR 2 YR (STUDY DURATION: 2 YR), 1000, 2100, 4100 PPM MICROENCAPSULATED IN DIET FOR 2 YR (STUDY DURATION: 2 YR), Tumor Site: Type of Lesion: NONE).

`O=NN1CCNCC1`: the carcinogen call (Species: RAT, Strain/Sex: F344/FEMALE, Route: INTRAVESICAL, 3.8 G (TOTAL DOSE) INJECTED INTO BLADDER 2/WK OVER 48 WK (STUDY DURATION: 102 WK), Tumor Site: Type of Lesion: NASAL CAVITY: TUMOR, BLADDER: TUMOR) is “active; positive”.

For the compound `OC(Cn1cncn1)(c1ccc(F)cc1)c1ccccc1F` (configuration not stated), the carcinogen call runs as follows: (Species: Mouse, Strain/Sex: C57BL/10JfCD-1/Alpk (C57BL/10J)/Female (50/Group), Route: Oral, 10, 50, 200 ppm (0; 1.5; 7.5; 30 mg/kg/day) of 93% flutriafol in diet for 2 yr, study duration 2 yr, 10, 50, 200 ppm (0; 1.5; 7.5; 30 mg/kg/day) of 93% flutriafol in diet for 2 yr, study duration 2 yr) “inactive; negative”; (Species: Mouse, Strain/Sex: C57BL/10JfCD-1/Alpk (C57BL/10J)/Male (50/Group), Route: Oral, 10, 50, 200 ppm (0; 1.5; 7.5; 30 mg/kg/day) of 93% flutriafol in diet for 2 yr, study duration 2 yr, 10, 50, 200 ppm (0; 1.5; 7.5; 30 mg/kg/day) of 93% flutriafol in diet for 2 yr, study duration 2 yr) “inactive; negative”; (Species: Rat, Strain/Sex: Alpk:AP/Female (52/Group), Route: Oral, 20, 200, 2000 ppm (0; 1; 10; 100 mg/kg/day) of 93% flutriafol in diet for 104 wk, study duration 104 wk, 20, 200, 2000 ppm (0; 1; 10; 100 mg/kg/day) of 93% flutriafol in diet for 104 wk, study duration 104 wk) “inactive; negative”; (Species: Rat, Strain/Sex: Alpk:AP/Male (52/Group), Route: Oral, 20, 200, 2000 ppm (0; 1; 10; 100 mg/kg/day) of 93% flutriafol in diet for 104 wk, study duration 104 wk, 20, 200, 2000 ppm (0; 1; 10; 100 mg/kg/day) of 93% flutriafol in diet for 104 wk, study duration 104 wk) “inactive; negative”.
